From patent publication US12092575B2, “Measuring method of cell migration using the rate of cell invasion” (MBD Co., Ltd., priority 2021, dated 2024)

Key:
[1] = tested on: #1 HNSCC PDC; assay: Pillar-based spheroid invasion assay of #1 HNSCC PDC; type: cell-based, human; settings: #1 HNSCC PDC spheroids, 80 μM of drugs, three days
[2] = tested on: A549 cells; assay: Transwell invasion assay (Matrigel-coated membrane); type: cell-based; settings: 1 μM docetaxel, 24 h, Matrigel-coated membrane (FIG. 6)
Experimental: In the present invention, transwell for conventional invasion assay was used. The membrane of the transwell was coated with 100 μl Matrigel (Corning, NY, USA) basement membrane matrix diluted 9-fold. A549 cells (2×10^4 cells/well) were seeded in the insert of the transwell with RPMI media without FBS. 500 μl RPMI media with FBS was filled in the wells to serve as a chemoattractant. After 24 h of cell incubation, migrated cells on the insert were fixed with 95% ethyl alcohol and then stained with 0.5% crystal violet.
Based on the fluorescence intensity, spheroid was identified, and invasive cells were calculated by subtracting the spheroid area from the total cell area. A549 cells formed a spheroid two days after cell aggregation and incubation. Cells surrounding spheroid migrated for an additional three days of culture. To check the invasiveness of A549 cells, the present inventors conducted invasion assay using Transwell (24-well transwell, Cat. No. 3422, Corning, USA) in no drug and 1 μM Docetaxel.

[3] = tested on: A549 cell line; assay: Pillar-based spheroid invasion assay of A549 cell line
Experimental: Before using the pillar array, the pillar array and cell-encapsulation apparatus were immersed in 70% ethanol for 30 min for sterilization followed by complete drying at room temperature.

Row | SMILES | cell migration/invasion (spheroid morphology) [1] | invasion of A549 in the Transwell [2] | cell invasion ([3]; A549 spheroids on pillar) | size of a single big spheroid (spheroid area) ([3]; A549 spheroids on pillar (FIG. 8)) | total cell area, which means cell viability ([3]; A549 spheroids on pillar, as a function of docetaxel concentration (FIG. 7)) | invasion ratio ([3]; A549 spheroids on pillar, docetaxel treated, control 52% (FIG. 9))
1 | N.N.[Cl][Pt][Cl] [cisplatin, Cisplatin] | effectively inhibited cell migration/invasion | – | – | – | – | –
2 | CC(=O)O[C@@]12CO[C@@H]1C[C@H](O)[C@@]1(C)C(=O)[C@H](O)C3=C(C)[C@@H](OC(=O)[C@H](O)[C@@H](NC(=O)OC(C)(C)C)c4ccccc4)C[C@@](O)([C@@H](OC(=O)c4ccccc4)[C@H]21)C3(C)C [docetaxel, Docetaxel] | effectively inhibited cell migration/invasion | inhibited the invasion | inhibited cell invasion | reduced the size of a single big spheroid | decreased depending on docetaxel concentration | lower than 35%
3 | CN[C@@H]1C[C@H]2O[C@@](C)([C@@H]1OC)n1c3ccccc3c3c4c(c5c6ccccc6n2c5c31)C(=O)NC4 [staurosporine, Staurosporine] | effectively inhibited cell migration/invasion | – | – | – | – | –
